These results are taken from patent US20110053897A1 (IRM LLC, priority 2009, published 2011).

The target of the first assay is T1, Syk kinase (Homo sapiens, UniProt P43405).
T1 construct: purchased
The assay is described as follows: Syk kinase inhibition, Caliper LabChip off-chip mobility-shift kinase assay. It is filed as biochemical. Conditions: Caliper LabChip assay; read-out: Syk Enzyme IC50. In a few lines: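 Purified Syk pre-incubated 15 min with compound in 100 mM HEPES pH 7.5, 1 mM DTT, 10 mM MgCl2 or MnCl2, 0.002% Brij-35, then 1.5 μM fluorescein peptide and ATP at apparent KM added; 1–1.5 h at room temperature, 4% DMSO, EDTA stop. Microfluidic mobility-shift product/substrate conversion gave % inhibition; IC50 from 12-point series (10–0.00003 μM) by 4-parameter fit.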
In general, IC50 refers to the point on the concentration scale where inhibition reaches its midpoint. Take `CC1(Nc2nc(-c3cnc(N)nc3)cc3ccn(CC4(CO)COC4)c(=O)c23)CCC1` [compound 933]: the IC50 was 25 nM.

As for `CS(=O)(=O)CCn1ccc2cc(Nc3cnccn3)nc(N[C@H]3CC[C@H](O)CC3)c2c1=O` [compound 982], the concentration for half-maximal inhibition (IC50) worked out at 22 nM.

As for `C=Cc1ccnc(Nc2cc3ccn(CCO)c(=O)c3c(NC(C)(C)C)n2)c1` [compound 858], the IC50 turned out to be 46 nM.

As for `CC(C)(C)Nc1nc(Nc2cc(OC3CCN(CCO)CC3)ncn2)cc2ccn(CCO)c(=O)c12` [compound 646], the half-maximal inhibitory concentration (IC50) amounted to 9 nM.

For the compound `CCn1ccc2cc(Nc3cnccn3)nc(NCC(O)C(F)(F)F)c2c1=O` (stereo not drawn) [compound 779, 2-ethyl-6-(pyrazin-2-ylamino)-8-((3,3,3-trifluoro-2-hydroxypropyl)amino)-2,7-naphthyridin-1(2H)-one], the IC50 came out at 145 nM.

Turning to `CC(C)(C)Nc1nc(Nc2cc(-c3ccncc3)ccn2)cc2ccn(CCO)c(=O)c12` [compound 842], the IC50 is 51 nM.

`CCn1ccc2cc(Nc3nccc(O)n3)nc(N[C@@H]3CC[C@@H](O)C3)c2c1=O` [compound 960]: the IC50 was 61 nM.

As for `CC(C)(C)Nc1nc(Nc2cc(CN3CCOCC3)ccn2)cc2ccn(CCO)c(=O)c12` [compound 603], the 50% inhibitory concentration (IC50) was determined as 56 nM.

`Cc1ccnc(Nc2cc3ccn(C(C)C)c(=O)c3c(N[C@H]3CC[C@@H](O)C3)n2)c1` [compound 977]: the IC50 turned out to be 20 nM.

In the case of `O=c1c2c(N[C@H]3CC[C@@H](O)CC3)nc(Nc3cnccn3)cc2ccn1CCN1CCOCC1` [compound 994], the concentration for half-maximal inhibition (IC50) stood at 108 nM.

In the case of `C=Cc1cc(Nc2cc3ccn(CCO)c(=O)c3c(NC(C)(C)C)n2)ncn1` [compound 618, 8-(tert-butylamino)-2-(2-hydroxyethyl)-6-(6-vinylpyrimidin-4-ylamino)-2,7-naphthyridin-1(2H)-one], the half-maximal inhibitory concentration (IC50) was determined as 121 nM.

For `CCn1ccc2cc(Nc3cc(C(C)(C)O)ccn3)nc(NC3(CO)CCC3)c2c1=O` [compound 703], the IC50 was 85 nM.

With `CCn1ccc2cc(Nc3cc(C)ccn3)nc(NC(C)(CO)CO)c2c1=O` [compound 808], the half-inhibitory concentration (IC50) is 81 nM.

As for `CCC(C)(C)Nc1nc(-c2cnc(N)nc2)cc2ccn(CCO)c(=O)c12` [compound 908], the IC50 was 21 nM.

As for `COCCn1ccc2cc(Nc3cnccn3)nc(N[C@H]3CC[C@@H](O)CC3)c2c1=O` [compound 1005], the IC50 worked out at 17 nM.

For `C[C@@H](CO)Nc1nc(Nc2cnccn2)cc2ccn(CCF)c(=O)c12` [compound 1000], the IC50 was determined as 74 nM.

On to `CCn1ccc2cc(Nc3cc(C)ccn3)nc(NC3CCC(C)(O)CC3)c2c1=O` (stereo not drawn) [compound 951], for which the half-maximal inhibitory concentration (IC50) turned out to be 92 nM.

Consider `CC(C)Nc1nc(Nc2cc(-c3cccnc3)ccn2)cc2cc[nH]c(=O)c12` [compound 1045], for which the IC50 stood at 247 nM.

For the compound `CC(C)(C)Nc1nc(Nc2cc(C(N)=O)ccn2)cc2ccn(CCO)c(=O)c12` [compound 681], the half-inhibitory concentration (IC50) turned out to be 82 nM.

Take `CCn1ccc2cc(Nc3cc(C)ccn3)nc(N[C@@H]3CCC[C@@H]3CO)c2c1=O` [compound 941]: the 50% inhibitory concentration (IC50) is 226 nM.

On to `CC(C)(C)Nc1nc(-c2cnc(N)nc2)cc2cc[nH]c(=O)c12` [compound 894], for which the 50% inhibitory concentration (IC50) was found to be 5 nM.

In the case of `Nc1ncc(-c2cc3ccn(CCO)c(=O)c3c(NC3(CO)CCC3)n2)cn1` [compound 903], the half-inhibitory concentration (IC50) was 26 nM.

For the compound `CCn1ccc2cc(Nc3cnccn3)nc(NC3CCC(C)(O)CC3)c2c1=O` (stereo not drawn) [compound 952], the 50% inhibitory concentration (IC50) turned out to be 51 nM.

For the compound `CC(C)n1ccc2cc(Nc3cnccn3)nc(N[C@H]3CC[C@H](O)CC3)c2c1=O` [compound 965], the 50% inhibitory concentration (IC50) was found to be 61 nM.

Take `CC(C)(C)Nc1nc(Nc2cc(C(C)(C)O)ncn2)cc2ccn(CCS(C)(=O)=O)c(=O)c12` [compound 739]: the IC50 is 35 nM.

Regarding `CC(C)(C)Nc1nc(Nc2cc(CO)ccn2)cc2ccn(CCO)c(=O)c12` [compound 693], the half-maximal inhibitory concentration (IC50) turned out to be 42 nM.

Consider `Cc1cc(Nc2cc3ccn(CCO)c(=O)c3c(NC(C)(C)C)n2)ncn1` [compound 886], for which the half-inhibitory concentration (IC50) came to 60 nM.

Staying with this assay, now noted: read-out: Syk Enzyme IC50.
Turning to `COc1cncc(-c2cc3cc[nH]c(=O)c3c(Nc3ccc(C4CCN(C(C)CC#N)CC4)c(C)c3)n2)n1` (stereo not drawn) [compound 171], the IC50 came to 160 nM.

`CCc1ccnc(Nc2cc3cc[nH]c(=O)c3c(NC(C)C)n2)c1` [compound 491]: the IC50 worked out at 63 nM.

In the case of `CS(=O)(=O)c1ccc(Nc2nc(Nc3cnccn3)cc3ccn(CCO)c(=O)c23)cc1` [compound 405], the IC50 was 235 nM.

Take `Cc1ccnc(Nc2cc3cc[nH]c(=O)c3c(NC[C@@H]3CCCO3)n2)c1` [compound 505]: the IC50 amounted to 63 nM.

In the case of `O=c1[nH]ccc2cc(C3CCNCC3)nc(Nc3ccc(N4CCOCC4)cc3)c12` [compound 2], the half-maximal inhibitory concentration (IC50) amounted to 249 nM.

As to `O=c1[nH]ccc2cc(Nc3cc(C(F)(F)F)ccn3)nc(NC3CC3)c12` [compound 517], the half-inhibitory concentration (IC50) is 386 nM.

Turning to `Cn1ccc2cc(Nc3cnccn3)nc(Nc3ccc(C(N)=O)cc3)c2c1=O` [compound 468], the half-inhibitory concentration (IC50) stood at 101 nM.

Take `CCn1ccc2cc(Nc3cnccn3)nc(N[C@H]3CCCC[C@@H]3O)c2c1=O` (racemic) [compound 407]: the IC50 turned out to be 301 nM.

In the case of `Cn1ccc2cc(Nc3cnccn3)nc(Nc3cccc(C(N)=O)c3)c2c1=O` [compound 477], the IC50 turned out to be 580 nM.

As for `CCNC(=O)C(C)N1CCC(c2ccc(Nc3nc(-c4cncc(OC)n4)cc4cc[nH]c(=O)c34)cc2C)CC1` (stereo not drawn) [compound 120], the half-maximal inhibitory concentration (IC50) turned out to be 23 nM.

Consider `CCn1ccc2cc(Nc3cncnc3C)nc(NC(C)C)c2c1=O` [compound 348], for which the IC50 came to 7440 nM.

Take `CC(C)CNc1nc(-c2cnc(N)nc2)cc2cc[nH]c(=O)c12` [compound 186]: the IC50 is 178 nM.

Regarding `COCCN1CCC(c2ccc(Nc3nc(-c4cnc5nccn5c4)cc4cc[nH]c(=O)c34)cc2C)CC1` [compound 30], the half-inhibitory concentration (IC50) came to 8 nM.

For the compound `CC(=O)N1CCC(c2ccc(Nc3nc(Nc4cnccn4)cc4ccn(C)c(=O)c34)cc2)CC1` [compound 345], the IC50 worked out at 1220 nM.

As to `Cc1ccnc(Nc2cc3cc[nH]c(=O)c3c(N[C@H]3CC[C@@H](O)CC3)n2)c1` [compound 303], the IC50 was found to be 17 nM.

Turning to `Cn1ccc2cc(Nc3cnccn3)nc(NCC3CCCO3)c2c1=O` (stereo not drawn) [compound 475], the concentration for half-maximal inhibition (IC50) came out at 139 nM.

Turning to `CCn1ccc2cc(Nc3cnccn3)nc(N[C@@H]3CCC[C@@H]3O)c2c1=O` [compound 419], the half-maximal inhibitory concentration (IC50) came out at 94.4 nM.

As to `COCCN1CCC(c2ccc(Nc3nc(-c4cnc(C)nc4)cc4cc[nH]c(=O)c34)cc2C)CC1` [compound 71], the IC50 was 14 nM.

Turning to `CC(CO)Nc1nc(Nc2ccccn2)cc2cc[nH]c(=O)c12` (stereo not drawn) [compound 274], the IC50 was determined as 55 nM.

`Cc1cc(Nc2nc(Nc3ccc(C(F)(F)F)cn3)cc3cc[nH]c(=O)c23)ccc1N1CCO[C@H](C)C1` [compound 583]: the concentration for half-maximal inhibition (IC50) was determined as 8440 nM.

For the compound `CCOCCc1cc2cc[nH]c(=O)c2c(Nc2ccc(N3CCO[C@H](C)C3)c(C)c2)n1` [compound 222], the 50% inhibitory concentration (IC50) came to 243 nM.

In the case of `COc1cncc(-c2cc3cc[nH]c(=O)c3c(Nc3ccc(C4CCN(C(C)C(N)=O)CC4)c(C)c3)n2)n1` (stereo not drawn) [compound 136], the IC50 was 46 nM.

For `Cc1ccnc(Nc2cc3ccn(C)c(=O)c3c(NC[C@@H](C)O)n2)c1` [compound 511], the concentration for half-maximal inhibition (IC50) worked out at 86 nM.

Regarding `CCN1CCN(c2n[nH]c3cc(Nc4nc(-c5cncc(C(=O)N6CCOCC6)c5)cc5cc[nH]c(=O)c45)ccc23)CC1` [compound 206], the IC50 was found to be 60 nM.
